Source: the supplement of paper PMC5908809

Experiments:
Assay in all cases: relative IC50 (inflection point of fitted viability curve, relative to fitted max inhibition); higher = less sensitive
Conditions in all cases: 72 h
[1] = tested on: IMC-1 (IL-2 20 ng/mL)
Method: (§1)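 Drug sensitivity and resistance testing: 5 concentrations over a 10,000-fold range, 72 h at 37 °C, viability by CellTiter-Glo normalised to DMSO and benzethonium chloride controls. IC50 is the inflection point of a logistic fit (min fixed at 0, max fitted), so it is relative to the fitted maximal inhibition. Kept only where fitted max inhibition is at least 50%.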

[2] = tested on: KHYG-1 (IL-2 2.5 ng/mL)
Method: as §1

[3] = tested on: NK-YS (IL-2 2.5 ng/mL)
Method: as §1

[4] = tested on: NKL (IL-2 2.5 ng/mL)
Method: as §1

[5] = tested on: normal primary NK cells, pool 1 (3 donors) (IL-2 2.5 ng/mL)
Method: as §1

[6] = tested on: normal primary NK cells, pool 1 (3 donors), resting (IL-2 0 ng/mL)
Method: as §1

[7] = tested on: DERL-7 (IL-2 2.5 ng/mL)
Method: as §1

[8] = tested on: KAI3 (IL-2 2.5 ng/mL)
Method: as §1

[9] = tested on: NK-92 (IL-2 2.5 ng/mL)
Method: as §1

[10] = tested on: YT (IL-2 2.5 ng/mL)
Method: as §1

[11] = tested on: SNK-6 (IL-2 2.5 ng/mL)
Method: as §1

[12] = tested on: normal primary NK cells, pool 2 (3 donors) (IL-2 2.5 ng/mL)
Method: as §1

[13] = tested on: normal primary NK cells, pool 3 (3 donors) (IL-2 2.5 ng/mL)
Method: as §1

Compound | relative IC50 [1] [nM] | relative IC50 [2] [nM] | relative IC50 [3] [nM] | relative IC50 [4] [nM] | relative IC50 [5] [nM] | relative IC50 [6] [nM] | relative IC50 [7] [nM] | relative IC50 [8] [nM] | relative IC50 [9] [nM] | relative IC50 [10] [nM] | relative IC50 [11] [nM] | relative IC50 [12] [nM] | relative IC50 [13] [nM]
FC(F)(F)c1ccc(/C=C/c2nc(COc3ccc(CCCCn4ccnn4)cc3)co2)cc1 [Mubritinib] | 11.2 | 45.7 | 42 | 56 | 12.2 | 12 |  |  |  |  |  |  | 
COc1cc2ncnc(Nc3ccc(F)c(Cl)c3)c2cc1OCCCN1CCOCC1 [Gefitinib] |  | 2270 |  | 1770 |  | 3700 | 3010 | 1710 | 2660 | 2390 |  |  | 
CC(=O)NCC(=O)N1[C@@H]2CC[C@H]1c1ccc(Nc3ncc(C(F)(F)F)c(NC4CCC4)n3)cc12 | 91.9 | 40.8 | 111 | 101 | 975 | 4400 | 54.3 | 95 | 117 | 439 | 20 | 766 | 1310
O=c1[nH]c(=O)n([C@H]2C[C@H](O)[C@@H](CO)O2)cc1F [Floxuridine] | 128 | 8.42 | 28.9 | 75.2 |  |  | 31 | 10.1 | 19.5 | 286 | 68.6 |  | > 10000
CC(C)Oc1ccc(C(=O)N[C@H](CNC(=O)CN(C)C)Cc2ccc(-c3cn4cccc([C@H](C)O)c4n3)cc2)cc1Cl | 261 | 123 | 56.7 | 54.3 |  | 4570 | 70.3 | 439 | 204 | 48.2 | 24.9 |  | 
CNC(=O)c1ccc(N2C(=S)N(c3ccc(C#N)c(C(F)(F)F)c3)C(=O)C2(C)C)cc1F [Enzalutamide] |  |  |  |  |  |  | > 10000 | > 10000 |  |  |  |  | > 10000
Nc1ncnc2c1nc(N)n2[C@@H]1O[C@H](CO)[C@@H](O)[C@H]1O [8-amino-adenosine] | 1080 | 836 | 757 | 360 | 6680 | 13100 | 489 | 320 | 431 | 862 | 68.1 | 5810 | 6780
O=C(O)C(=O)O.[NH-][C@@H]1CCCC[C@H]1[NH-].[Pt+2] [Oxaliplatin] | 9490 |  |  |  |  |  |  |  |  |  |  | 9290 | 9130
Nc1ncnc2c1nc(Cl)n2[C@@H]1O[C@H](CO)[C@@H](O)[C@H]1O [8-chloro-adenosine] | 19300 | 2820 | 1440 | 4720 | 5980 | 5340 | 641 | 579 | 2610 | 1870 | 330 | 6010 | 7030
CN(c1ccccc1CNc1nc(Nc2ccc3c(c2)CC(=O)N3)ncc1C(F)(F)F)S(C)(=O)=O | 1130 | 553 | 1030 | 715 | 1130 | 4290 | 609 | 1380 | 1710 | 1470 | 1600 | 1720 | 1950
CN(c1ncccc1CNc1nc(Nc2ccc3c(c2)CC(=O)N3)ncc1C(F)(F)F)S(C)(=O)=O | 2960 | 1090 | 1310 | 1540 | 2320 | 4770 | 2000 | 1930 | 3040 | 1530 | 2870 | 3440 | 3740
CCn1c(-c2nonc2N)nc2c(C#CC(C)(C)O)ncc(OC[C@H]3CCCNC3)c21 |  |  |  |  | 2160 | 1730 | 269 |  |  |  |  | 2190 | 1870
O=C(Nc1ccc2[nH]nc(-c3ccncc3)c2c1)[C@@H]1CCN(CC(=O)N2CCN(c3ccc(-c4ncccn4)cc3)CC2)C1 | > 10000 | 784 |  | 516 |  | 1670 | 382 |  |  |  |  |  | 
C=CC(=O)Nc1cc2c(Nc3ccc(F)c(Cl)c3)ncnc2cc1OCCCN1CCOCC1 [Canertinib] | 3700 | 2670 | 1990 | 1290 | 402 | 333 | 1080 | 1100 | 1180 | 1970 | 2980 | 710 | 1290
S=c1[nH]cnc2nc[nH]c12 [Mercaptopurine] | 1590 | 1420 | 725 |  |  | > 10000 |  | 2160 | 393 | 1410 | 137 |  | 
COC(=O)c1ccc2c(c1)NC(=O)/C2=C(\Nc1ccc(N(C)C(=O)CN2CCN(C)CC2)cc1)c1ccccc1 [Nintedanib] | 3980 | 1720 | 1700 | 902 | 1200 | 1010 | 1210 | 1850 | 1070 | 2580 | 4280 | 1580 | 2730
Cc1cc(C(C)Nc2ccccc2)c2nc(N3CCOCC3)cc(=O)n2c1 (stereo not drawn) [TGX-221] | > 10000 |  |  |  |  | 1450 |  |  |  |  |  |  | 
O=C(c1ccc(/C=C/c2n[nH]c3ccccc23)cc1)N1CCNCC1 [KW-2449] | > 2500 | 807 |  |  |  |  | 920 |  |  |  | 687 |  | > 2500
CCN(CC)CCCC(C)Nc1c2ccc(Cl)cc2nc2ccc(OC)cc12 (stereo not drawn) [Mepacrine] | 1500 |  |  |  |  |  |  |  |  |  |  | 1220 | 1550
CN1CC[C@H](c2c(O)cc(O)c3c(=O)cc(-c4ccccc4Cl)oc23)[C@H](O)C1 [Alvocidib] | 410 | 136 | 142 | 126 | 182 | 370 | 174 | 55.3 | 117 | 133 | 8.41 | 150 | 164
CC1=C(/C=C/C(C)=C/C=C/C(C)=C/C(=O)O)C(C)(C)CCC1 [Tretinoin] | > 10000 |  |  |  |  |  |  |  |  |  |  |  | > 10000
CCS(=O)(=O)N1CC(CC#N)(n2cc(-c3ncnc4[nH]ccc34)cn2)C1 [Baricitinib] | 451 | 26.2 | 63.5 | 12 | 46.9 |  | 51.9 | 18.4 | 95.8 | 163 | 73.3 | 54.4 | 124
COc1cc(Nc2ncc(F)c(Nc3ccc4c(n3)NC(=O)C(C)(C)O4)n2)cc(OC)c1OC [Tamatinib] | 4100 | 1340 | 1650 | 992 |  | > 10000 |  | 536 | 2180 | 2580 | 3590 |  | 2800
CCS(=O)(=O)c1cccc(-c2cc(C(=O)NC3CCN(C)CC3)c(C)c3[nH]c4ncc(C)cc4c23)c1 [TAK-901] | 116 | 208 | 30.8 | 105 | 303 |  | 50.2 | 116 |  |  | 135 |  | 
